Reference: publication PMC9082340 (ACS applied materials & interfaces, 2020)
Ends that are not written are not given here.

Legend:
[1] = tested on: HEK-293 T cells expressing PH-LgBiT; assay: NanoLuc; assay type: cell-based; details: PyB 25–200 μM in PBS 5 min before 1 μM YARA-HiBiT or R6-HiBiT (Figure S29)
[2] = previous literature reports; cited from earlier work
[3] = tested on: HEK-293 T cells; assay type: cell-based; details: pyrene butyrate treatment
[4] = tested on: A7r5 rat aortic vascular smooth muscle cells; assay: Cell viability; assay type: cell-based; details: 10 μM peptide, A7r5 cells (Figure S19-G)

| Compound | Increase in activity over peptide alone with pyrene butyrate [1] [fold] | Activity enhancement reported for pyrene butyrate [2] | Cell viability at 100 μM (29 μg/mL) [3] [%] | Cell viability at 200 μM (58 μg/mL) [3] [%] | Toxicity of peptide dose [4] |
| --- | --- | --- | --- | --- | --- |
| O=C(O)CCCc1ccc2ccc3cccc4ccc1c2c34 [pyrene butyrate, 1-pyrenebutyric acid] | ≤ 1.3 | 1.5–5 fold | 65 | 57 | – |
| YARAAARQARAKALARQLGVAA [YARA-MK2i] | – | – | – | – | nontoxic |
